Measured values reported in paper PMC3744471, “Mitochondria Are the Target Organelle of Differentiation-Inducing Factor-3, an Anti-Tumor Agent Isolated from Dictyostelium Discoideum” (PLoS ONE, 2013).

Tests used:
[1] = tested on: HeLa cells; experiment: Cell growth assay (Alamar blue), HeLa; format: cell-based, human; conditions: 3 days; for Effect on cell growth (relative cell number): HeLa; for IC50: Homo sapiens, 72 h, HeLa cells, Alamar blue
Protocol: HeLa, LM8, and 3T3-L1 cells were cultured for 3 days at 2.5–5×10^3 cells/well in 12-well plates with each well filled with 1 ml of DMEM-FBS (for HeLa and 3T3-L1) or MEM-α-FBS (for LM8) together with drugs at various concentrations. Then, the incubation media were discarded and the cells were washed with 1 ml of PBS(–) (20 mM phosphate buffered saline, pH 7.4) and incubated with 1 ml of fresh DMEM-FBS (HeLa and 3T3-L1) or MEM-α-FBS (LM8) containing 5% (v/v) of Alamar blue (a cell number indicator; Wako Pure Chemical Industries, Osaka, Japan) until the color changed. […] Relative cell numbers were determined for each concentration for each drug and the IC50 was determined from the dose-response curves.

[2] = tested on: 3T3-L1 cells; experiment: Cell growth assay (Alamar blue), 3T3-L1; format: cell-based, mouse; conditions: for Effect on cell growth in 3T3-L1 cells: BODIPY-DIF-3 5–20 µM, CCCP 2–10 µM, 4 days; for IC50: Mus musculus, 72 h, 3T3-L1 cells, 3 days, Alamar blue
Protocol: HeLa, LM8, and 3T3-L1 cells were cultured for 3 days at 2.5–5×10^3 cells/well in 12-well plates with each well filled with 1 ml of DMEM-FBS (for HeLa and 3T3-L1) or MEM-α-FBS (for LM8) together with drugs at various concentrations. Then, the incubation media were discarded and the cells were washed with 1 ml of PBS(–) (20 mM phosphate buffered saline, pH 7.4) and incubated with 1 ml of fresh DMEM-FBS (HeLa and 3T3-L1) or MEM-α-FBS (LM8) containing 5% (v/v) of Alamar blue (a cell number indicator; Wako Pure Chemical Industries, Osaka, Japan) until the color changed. The relative cell number was assessed by measuring absorbance at 570 nm (reference at 595 nm) as described previously, [14]; DIF-related compounds and BODIPY-conjugated compounds hardly disturbed the cell number assessment with Alamar blue (data not shown), probably because the additive compounds were washed out when cell number was assessed. For determination of the 50% inhibitory concentration (IC50) of each drug, the cells were cultured for 3 days in the presence of each drug at various concentrations. Relative cell numbers were determined for each concentration for each drug and the IC50 was determined from the dose-response curves.
Supplementary file pone.0072118.s002.tif: Figure S2 Effects of BODIPY-DIF-3 and CCCP on cell growth, and cellular localization of BODIPY-DIF-3 in 3T3-L1 cells. (A) Cells were incubated for 4 days with 5–20 µM of BODIPY-DIF-3 (closed circles) or 2–10 µM of CCCP (closed triangles), and relative cell number was assessed by the use of Alamar blue. Data are the mean values and SD (bars) of three independent experiments. (B) Cells were incubated for 0.5 h or 3 days with 20 µM of BODIPY-DIF-3, washed free of the additive, and observed microscopically. (C) Cells were incubated for 0.5 h with BODIPY-DIF-3 (20 µM), Hoechst (0.1 µg/ml), and MitoTracker (0.1 µM), washed free of the additives, and observed by using a high-magnification fluorescence microscope. (D) Cells were incubated for 3 days with BODIPY-DIF-3 (20 µM) and then for 0.5 h with Hoechst (0.1 µg/ml) and MitoTracker (0.1 µM). Cells were washed free of the additives and observed by using a high-magnification fluorescence microscope. (TIF) Click here for additional data file.

[3] = tested on: mouse liver mitochondria; experiment: Mitochondrial oxygen consumption (Clark-type oxygen electrode); format: biochemical; conditions: for Effect on basal rate of O2 consumption: 1–100 µM; for PC100 (µM) for Mito. O2 consumption: 100% promoting concentration: doubles the basal rate of oxygen consumption, 30°C
Protocol: Mitochondria were isolated from mouse liver (ICR; 7–10 week-old females) by differential centrifugation as described previously. Cells were homogenized in a Potter glass homogenizer with H-Buffer (250 mM sucrose, 10 mM Tris-HCl pH 7.4), and centrifuged at 800g for 1 min at 4°C. The supernatant was centrifuged at 6,000g for 5 min, and the resulting pellet, the crude mitochondrial fraction, was suspended in H-Buffer. The suspension was layered over a discontinuous sucrose gradient consisting of 1.1 M and 1.6 M sucrose in a Tris buffer (10 mM Tris-HCl pH 7.4), and centrifuged for 3 h at 90,000g at 4°C. The interface was collected in Tris buffer and centrifuged at 6,000g for 5 min. The resulting pellets were suspended in Tris buffer and used for experiments after confirming the presence of the mitochondrial marker cytochrome c.
Mitochondrial oxygen consumption was determined using a Clark-type oxygen electrode (Strathkelvin Instruments Ltd., North Lanarkshire, Scotland) as described, [39]. The mitochondria-enriched fraction was incubated at 30°C in oxygen measurement buffer (225 mM mannitol, 75 mM sucrose, 10 mM KCl, 0.1 mM EDTA, 3 mM phosphate, 5 mM succinate, 5 mM glutamate, and 20 mM Tris-HCl pH 7.4) in the presence or absence of various concentrations of the DIF-like molecules or CCCP. After recording ‘State 4’ of the respiration reaction, an aliquot of ADP was added to a final concentration of 200 µM to induce ‘State 3’. The PC100 (100% promoting concentration) of each additive was defined as the drug concentration that doubled the basal rate of oxygen consumption during State 3, which was calculated from the dose-response plot for the rate of oxygen consumption (Figure 8).

[4] = tested on: mitochondria in HeLa cells; experiment: Mitochondrial morphology by fluorescence microscopy; format: cell-based, human; conditions: BODIPY-DIF-3 20 µM 1 day, Bu-DIF-3 5 µM, CCCP 10 µM 3 days
Protocol: For high magnification multi-color imaging, cells were incubated for the appropriate times with 2 ml of DMEM-FBS (HeLa and 3T3-L1) or MEM-α-FBS (LM8) containing various compounds in 35-mm plastic dishes (tissue culture treated µ-Dish; ibidi, Martinsried, Germany). The cells were washed twice with 2 ml of PBS(–), submerged in 2 ml of Hepes buffer (pH 7.4), and observed at room temperature with a Keyence BZ-9000 fluorescence microscope (Osaka, Japan) equipped with an oil immersion 100× lens (CFI Plan Apo VC100XH) and multi-filters that can distinguish four fluorescent probes simultaneously. Original digitized images of z-stack sections were taken at 0.4- µm intervals, which were then treated (haze-reduced) with the Keyence BZ analyzer software (for deconvolution fluorescence imaging), and compiled into 3D images; when 3D images were constructed, nonlinear adjustment was performed to obtain clear (high contrast) images without haze. All color images are presented in pseudo colors.

SMILES | Effect on cell growth (relative cell number) ([1]; 5–20 µM (Bu-BODIPY up to 20 µM)) | IC50 [1] [µM] | Effect on cell growth in 3T3-L1 cells [2] | IC50 [2] [µM] | Effect on basal rate of O2 consumption [3] | PC100 (µM) for Mito. O2 consumption [3] [µM] | Mitochondrial swelling [4] | Effect on cell growth (relative cell number) ([1]; 20 µM) | Effect on cell growth (relative cell number) ([1]; CCCP 10 µM, azide 0.01%) | Effect on mitochondrial O2 consumption ([3]; 0.1–1 µM)
CCCCCC(=O)c1c(O)cc(OCCCCNC(=O)CCC2=[N+]3C(=Cc4c(C)cc(C)n4[B-]3(F)F)C=C2)c(Cl)c1O [BODIPY-DIF-3] | suppressed in a dose-dependent manner | 13.2 | dose-dependently suppressed cell growth | 20 | dose-dependently promoted | 25 | caused many mitochondria to swell in most cells within 1 day |  |  | 
CCCCCC(=O)c1c(O)cc(OCCCC)c(Cl)c1O [Bu-DIF-3, 1-(3-chloro-2,6-dihydroxy-4-butoxyphenyl)hexan-1-one] |  | 3.2 |  | 4.3 | dose-dependently promoted | 1.7 | the mitochondria in all cells swelled greatly | significantly suppressed |  | 
N#CC(C#N)=NNc1cccc(Cl)c1 [CCCP, carbonyl cyanide m-chlorophenylhydrazone, reference compound] |  | 5.2 | dose-dependently suppressed cell growth | 7.5 |  | 0.43 | Mitochondrial swelling was induced in most HeLa cells |  | significantly suppressed | promoted mitochondrial O2 consumption in a dose-dependent manner
CCCCCC(=O)c1c(O)cc(OC)c(Cl)c1O [DIF-3, 1-(3-chloro-2,6-dihydroxy-4-methoxyphenyl)hexan-1-one] |  | 14.5 |  | > 20 | dose-dependently promoted | 12 | the mitochondria in all cells swelled greatly | significantly suppressed |  | 
